From patent US20110105493A1, “HETEROCYCLYL SUBSTITUTED ARYLINDENOPYRIMIDINES AND THEIR USE AS HIGHLY SELECTIVE ADENOSINE A2a RECEPTOR ANTAGONISTS” (priority 2009, published 2011)

Experiments:
[1] = biological target: T1, human adenosine A2A receptor (Homo sapiens, UniProt P29274); assay: Adenosine A2A Receptor Functional Assay (A2A GAL2); assay type: cell-based; details: for IC50: CHO-K1 cells overexpressing human A2A receptor, cAMP inducible beta-galactosidase reporter, 15 nM NECA agonist challenge, read-out: A2AGal2; for A1/A2A: ratio of A1Gal2 to A2AGal2 values
T1 construct: expressed in transfected cells; host or cells: CHO-K1 cells with a cAMP inducible beta-galactosidase reporter gene
T1 sequence (P29274 whole entry): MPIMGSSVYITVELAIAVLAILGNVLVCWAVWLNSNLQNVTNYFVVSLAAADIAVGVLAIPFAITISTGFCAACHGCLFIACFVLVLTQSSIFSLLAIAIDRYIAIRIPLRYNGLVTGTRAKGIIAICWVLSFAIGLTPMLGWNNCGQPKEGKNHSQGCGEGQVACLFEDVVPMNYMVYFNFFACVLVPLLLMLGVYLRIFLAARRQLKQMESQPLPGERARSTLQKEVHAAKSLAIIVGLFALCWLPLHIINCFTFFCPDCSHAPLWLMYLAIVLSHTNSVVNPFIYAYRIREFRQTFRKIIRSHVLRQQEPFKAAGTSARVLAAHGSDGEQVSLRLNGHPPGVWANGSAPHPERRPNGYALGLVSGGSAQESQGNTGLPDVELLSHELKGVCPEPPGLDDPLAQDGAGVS
Protocol: Adenosine A2A Receptor Functional Assay (A2A GAL2)
To initiate the functional assay, cryopreserved CHO—K1 cells overexpressing the human adenosine A2A receptor and containing a cAMP inducible beta-galactosidase reporter gene were thawed, centrifuged, DMSO containing media removed, and then seeded with fresh culture media into clear 384-well tissue culture treated plates (BD #353961) at a concentration of 10K cells/well. Prior to assay, these plates were cultured for two days at 37° C., 5% CO2, 90% Rh. On the day of the functional assay, culture media was removed and replaced with 45 μL assay medium (Hams/F-12 Modified (Mediatech # 10-080CV) supplemented w/0.1% BSA). Test compounds were diluted and 11 point curves created at a 1000× concentration in 100% DMSO. Immediately after addition of assay media to the cell plates, 50 nL of the appropriate test compound antagonist or agonist control curves were added to cell plates using a Cartesian Hummingbird. Compound curves were allowed to incubate at room temperature on cell plates for approximately 15 minutes before addition of a 15 nM NECA (Sigma E2387) agonist challenge (5 μL volume). A control curve of NECA, a DMSO/Media control, and a single dose of Forskolin (Sigma F3917) were also included on each plate. After additions, cell plates were allowed to incubate at 37° C., 5% CO2, 90% Rh for 5.5-6 hours. After incubation, media were removed, and cell plates were washed 1×50 μL with DPBS w/o Ca & Mg (Mediatech 21-031-CV). Into dry wells, 20 μL of 1×Reporter Lysis Buffer (Promega E3971 (diluted in dH2O from 5× stock)) was added to each well and plates frozen at −20° C. overnight. For β-galactosidase enzyme colorimetric assay, plates were thawed out at room temperature and 20 μL 2× assay buffer (Promega) was added to each well. Color was allowed to develop at 37° C., 5% CO2, 90% Rh for 1-1.5 h or until reasonable signal appeared. The colorimetric reaction was stopped with the addition of 60 μL/well 1M sodium carbonate. Plates were counted at 405 nm on a SpectraMax Microplate Reader (Molecular Devices). Data was analyzed in Microsoft Excel and IC/EC50 curves were fit using a standardized macro.

[2] = biological target: T2, human adenosine A1 receptor (Homo sapiens, UniProt P30542); assay: Adenosine A1 Receptor Functional Assay (A1GAL2); assay type: cell-based; details: CHO-K1 cells overexpressing human A1 receptor, cAMP inducible beta-galactosidase reporter, 4 nM r-PIA/1 uM Forskolin agonist challenge
T2 construct: expressed in transfected cells; host or cells: CHO-K1 cells with a cAMP inducible beta-galactosidase reporter gene
T2 sequence (P30542 1-326): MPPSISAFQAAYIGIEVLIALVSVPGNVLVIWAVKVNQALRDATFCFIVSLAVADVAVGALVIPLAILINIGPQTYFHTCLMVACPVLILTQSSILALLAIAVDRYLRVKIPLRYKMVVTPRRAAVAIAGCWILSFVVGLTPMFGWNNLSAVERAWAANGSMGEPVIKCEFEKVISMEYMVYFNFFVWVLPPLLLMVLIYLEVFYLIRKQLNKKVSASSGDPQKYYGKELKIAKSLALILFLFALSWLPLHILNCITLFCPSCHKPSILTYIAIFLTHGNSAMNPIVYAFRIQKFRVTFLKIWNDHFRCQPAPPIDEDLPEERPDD
Protocol: Adenosine A1 Receptor Functional Assay (A1GAL2)
To initiate the functional assay, cryopreserved CHO—K1 cells overexpressing the human adenosine A1 receptor and containing a cAMP inducible beta-galactosidase reporter gene were thawed, centrifuged, DMSO containing media removed, and then seeded with fresh culture media into clear 384-well tissue culture treated plates (BD #353961) at a concentration of 10K cells/well. Prior to assay, these plates were cultured for two days at 37° C., 5% CO2, 90% Rh. On the day of the functional assay, culture media was removed and replaced with 45 μL assay medium (Hams/F-12 Modified (Mediatech # 10-080CV) supplemented w/0.1% BSA). Test compounds were diluted and 11 point curves created at a 1000× concentration in 100% DMSO. Immediately after addition of assay media to the cell plates, 50 nL of the appropriate test compound antagonist or agonist control curves were added to cell plates using a Cartesian Hummingbird. Compound curves were allowed to incubate at room temperature on cell plates for approximately 15 minutes before addition of a 4 nM r-PIA (Sigma P4532)/1 uM Forskolin (Sigma F3917) agonist challenge (5 μL volume). A control curve of r-PIA in1 uM Forskolin, a DMSO/Media control, and a single dose of Forskolin were also included on each plate. After additions, cell plates were allowed to incubate at 37° C., 5% CO2, 90% Rh for 5.5-6 hours. After incubation, media was removed, and cell plates were washed 1×50 μL with DPBS w/o Ca & Mg (Mediatech 21-031-CV). Into dry wells, 20 μL of 1×Reporter Lysis Buffer (Promega E3971 (diluted in dH2O from 5× stock)) was added to each well and plates frozen at −20° C. overnight. For β-galactosidase enzyme colorimetric assay, plates were thawed out at room temperature and 20 μL 2×assay buffer (Promega) was added to each well. Color was allowed to develop at 37° C., 5% CO2, 90% Rh for 1-1.5 h or until reasonable signal appeared. The colorimetric reaction was stopped with the addition of 60 μL/well 1M sodium carbonate. Plates were counted at 405 nm on a SpectraMax Microplate Reader (Molecular Devices). Data was analyzed in Microsoft Excel and IC/EC50 curves were fit using a standardized macro.

SMILES	IC50 [1] [µM]	A1/A2A [1]	IC50 [2] [µM]
Nc1nc(-c2ccccc2)c2c(n1)-c1c(cccc1N1CCN(c3ccc(Cl)cc3)CC1)C2=O [Example 21, 2-Amino-9-[4-(4-chloro-phenyl)-piperazin-1-yl]-4-phenyl-indeno[1,2-d]pyrimidin-5-one]	0.0015	80	0.12
Nc1nc(-c2ccccc2)c2c(n1)-c1c(cccc1N1CCN(CC3CC3)CC1)C2=O [Example 22, 2-Amino-9-(4-cyclopropylmethyl-piperazin-1-yl)-4-phenyl-indeno[1,2-d]pyrimidin-5-one]	0.0106	77.5711	0.818
C=CCN1CCN(c2cccc3c2-c2nc(N)nc(-c4ccccc4)c2C3=O)CC1 [Example 23, 9-(4-Allyl-piperazin-1-yl)-2-amino-4-phenyl-indeno[1,2-d]pyrimidin-5-one]	0.0125	60.0758	0.748
Nc1nc(-c2ccccc2)c2c(n1)-c1c(cccc1N1CCC(N3CCOCC3)CC1)C2=O [Example 24, 2-Amino-9-(4-morpholin-4-yl-piperidin-1-yl)-4-phenyl-indeno[1,2-d]pyrimidin-5-one]	0.0047	57.4468	0.27

Further lines, results first:

IC50 [1] [µM]	A1/A2A [1]	IC50 [2] [µM]	SMILES
0.0042	52.381	0.22	CC(=O)C1(c2ccccc2)CCN(c2cccc3c2-c2nc(N)nc(-c4ccccc4)c2C3=O)CC1 [Example 25, 9-(4-Acetyl-4-phenyl-piperidin-1-yl)-2-amino-4-phenyl-indeno[1,2-d]pyrimidin-5-one]
0.0006	51.6667	0.031	Nc1nc(-c2ccccc2)c2c(n1)-c1c(cccc1N1CCN(c3cccnc3)CC1)C2=O [Example 26, 2-Amino-4-phenyl-9-(4-pyridin-3-yl-piperazin-1-yl)-indeno[1,2-d]pyrimidin-5-one]
